# Measurements as given in patent US20260042764A1, “COMPOSITIONS AND METHODS FOR INHIBITION OF KRAS” (TheRas, Inc., priority 2022, published 2026).
# Legend:
# SW620 cells (KRAS G12V) = assay: Cell-based pERK HTRF assay in SW620 cell (Biological Example 4); settings: pERK HTRF
# In short: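 This assay measures inhibition of ERK phosphorylation downstream of KRAS G12V in intact SW620 cells. Compounds are applied for 4 h over nine half-log concentrations starting at 1 μM, and pERK is quantified by HTRF.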
# [1] = biological target: T1, Avi-KRAS WT (1-169) GppNHp/RAF1 RBD-3xFLAG (52-151) (Homo sapiens, UniProt P01116); assay: Raf1-KRAS WT-GppNHP disruption HTRF assay (Biological Example 1); format: binding
# T1 construct: Avi-KRAS WT (1-169)
# In short: (§1)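 Measured with a KRAS/RAF1 HTRF assay at pH 7.5 in 10% DMSO, with two 1 h room-temperature incubations with shaking.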
# [2] = biological target: T2, Avi-KRAS G12R (1-169) GppNHp/RAF1 RBD-3xFLAG (52-151) (Homo sapiens, UniProt P01116, G12R); assay: Raf1-KRAS G12R-GppNHP disruption HTRF assay (Biological Example 1); format: binding
# T2 construct: Avi-KRAS G12R (1-169)
# In short: as §1
# [3] = biological target: T3, Avi-KRAS G12V (1-169) GppNHp/RAF1 RBD-3xFLAG (52-151) (Homo sapiens, UniProt P01116, G12V); assay: Raf1-KRAS G12V-GppNHP disruption HTRF assay (Biological Example 1); format: binding
# T3 construct: Avi-KRAS G12V (1-169)
# In short: as §1
# [4] = biological target: T4, Avi-KRAS G12D (1-169) GppNHp/RAF1 RBD-3xFLAG (52-151) (Homo sapiens, UniProt P01116, G12D); assay: Raf1-KRAS G12D-GppNHP disruption HTRF assay (Biological Example 1); format: binding
# T4 construct: Avi-KRAS G12D (1-169)
# In short: as §1
# GP2d cells (KRAS G12D) = assay: Cell-based pERK HTRF assay in GP2d cell (Biological Example 2); settings: GP2d (KRAS G12D) cells, pERK HTRF
# In short: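 Phospho-ERK is measured by HTRF following a 60 min compound exposure at 0.25% DMSO, with a 9-point half-log curve topping at 1 μM or 100 nM.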
# [5] = Homo sapiens, SW-620, SW620 (KRAS G12V) cells, class symbols
# [6] = KRAS WT, GppNHp-loaded, class symbols
# [7] = KRAS G12R, GppNHp-loaded, class symbols
# [8] = KRAS G12V, GppNHp-loaded, class symbols
# [9] = KRAS G12D, GppNHp-loaded, class symbols
# [10] = KRAS WT, GppNHp-loaded, Table 11
# [11] = KRAS G12R, GppNHp-loaded, Table 11
# [12] = KRAS G12V, GppNHp-loaded, Table 11
# [13] = KRAS G12D, GppNHp-loaded, Table 11
# [14] = Homo sapiens, SW-620, SW620 (KRAS G12V) cells
# T2 sequence (P01116 1-169 isoform P01116-2 G12R): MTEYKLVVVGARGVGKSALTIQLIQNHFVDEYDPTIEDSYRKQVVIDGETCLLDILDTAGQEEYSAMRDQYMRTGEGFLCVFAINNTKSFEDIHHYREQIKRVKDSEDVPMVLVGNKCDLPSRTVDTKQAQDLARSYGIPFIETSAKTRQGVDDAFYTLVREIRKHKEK
# T4 sequence (P01116 1-169 isoform P01116-2 G12D): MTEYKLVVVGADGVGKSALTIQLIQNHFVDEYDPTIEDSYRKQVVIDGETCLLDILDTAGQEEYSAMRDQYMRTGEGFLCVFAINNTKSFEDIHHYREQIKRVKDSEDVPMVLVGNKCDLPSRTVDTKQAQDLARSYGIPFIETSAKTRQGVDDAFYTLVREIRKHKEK
# T3 sequence (P01116 1-169 isoform P01116-2 G12V): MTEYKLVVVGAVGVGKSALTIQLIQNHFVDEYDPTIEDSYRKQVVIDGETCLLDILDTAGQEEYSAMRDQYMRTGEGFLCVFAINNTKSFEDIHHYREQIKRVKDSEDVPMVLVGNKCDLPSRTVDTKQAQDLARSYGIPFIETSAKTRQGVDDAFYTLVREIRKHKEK
# T1 sequence (P01116 1-169 isoform P01116-2): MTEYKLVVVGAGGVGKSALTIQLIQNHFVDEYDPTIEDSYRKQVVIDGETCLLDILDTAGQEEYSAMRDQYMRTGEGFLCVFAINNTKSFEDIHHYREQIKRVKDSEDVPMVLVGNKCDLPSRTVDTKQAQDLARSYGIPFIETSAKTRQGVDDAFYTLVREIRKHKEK
SMILES,IC50 (SW620 cells (KRAS G12V); [5]),"IC50 [1, 6]","IC50 [2, 7]","IC50 [3, 8]","IC50 [4, 9]","IC50 (GP2d cells (KRAS G12D); GP2d, class symbols)",IC50 (SW620 cells (KRAS G12V); [14]),IC50 (GP2d cells (KRAS G12D); GP2d),IC50 ([1]; KRAS WT-GppNHp/RAF1 RBD HTRF),IC50 ([2]; KRAS G12R-GppNHp/RAF1 RBD HTRF),IC50 ([3]; KRAS G12V-GppNHp/RAF1 RBD HTRF),IC50 ([4]; KRAS G12D-GppNHp/RAF1 RBD HTRF),other results
"CN(C)C(=O)N1CC[C@H]2[C@@H]1CN2c1nc(OC[C@@]23CCCN2C[C@H](F)C3)nc2c(F)c(-c3ccc(F)c4sc(N)c(C#N)c34)c(C(F)(F)F)cc12 (atropisomer, axis not shown) [Compound 728]",100 to 1000 nM,1000 to 10000 nM,1000 to 10000 nM,1000 to 10000 nM,1000 to 10000 nM,100 to 1000 nM,–,–,–,–,–,–,–
"CC(=O)N1CC[C@@H](N(C)c2nc(OC[C@@]34CCCN3C[C@H](F)C4)nc3c(F)c(-c4ccc(F)c5sc(N)c(C#N)c45)c(C(F)(F)F)cc23)[C@H]1C (single isomer, unassigned) [Compound 192]",–,–,–,–,–,–,–,–,–,–,–,–,"IC50 (SW620 cells (KRAS G12V); SW620 (KRAS G12V) cells): > 1000 nM; IC50 [1, 10]: > 10000 nM; IC50 [2, 11]: > 10000 nM; IC50 [3, 12]: > 10000 nM; IC50 [4, 13]: > 10000 nM; IC50 (GP2d cells (KRAS G12D)): > 1000 nM"
"CCN(c1nc(OC[C@@]23CCCN2C[C@H](F)C3)nc2c(F)c(-c3ccc(F)c4sc(N)c(C#N)c34)c(C(F)(F)F)cc12)[C@H]1C[C@H]2CN(C3CC3)C(=O)N2C1 (atropisomer, axis not shown) [Compound 775]",< 100 nM,< 100 nM,< 100 nM,< 100 nM,< 100 nM,< 100 nM,–,–,–,–,–,–,–
N#Cc1c(N)sc2c(F)ccc(-c3c(C(F)(F)F)cc4c(N5CCC5)nc(OC[C@@]56CCCN5C[C@H](F)C6)nc4c3F)c12 [Compound 212],–,–,–,–,–,–,< 100 nM,< 100 nM,–,–,–,–,"IC50 [1, 10]: 100 to 1000 nM; IC50 [2, 11]: 100 to 1000 nM; IC50 [3, 12]: 100 to 1000 nM; IC50 [4, 13]: 100 to 1000 nM"
COCCN(C)c1nc(OC[C@@]23CCCN2C[C@H](F)C3)nc2c(F)c(-c3ccc(F)c4sc(N)c(C#N)c34)c(C(F)(F)F)cc12 [Compound 167],–,–,–,–,–,–,< 100 nM,< 100 nM,–,–,–,–,"IC50 [1, 10]: 100 to 1000 nM; IC50 [2, 11]: 100 to 1000 nM; IC50 [3, 12]: 100 to 1000 nM; IC50 [4, 13]: 100 to 1000 nM"
N#Cc1c(N)sc2c(F)ccc(-c3c(C(F)(F)F)cc4c(N5CCO[C@H]6C[C@H]65)nc(OC[C@@]56CCCN5C[C@H](F)C6)nc4c3F)c12 [Compound 403],–,–,–,–,–,–,< 100 nM,< 100 nM,100 to 1000 nM,100 to 1000 nM,100 to 1000 nM,100 to 1000 nM,–
CC(C)C(=O)N1C[C@@H](N(C)c2nc(OC[C@@]34CCCN3C[C@H](F)C4)nc3c(F)c(-c4ccc(F)c5sc(N)c(C#N)c45)c(C(F)(F)F)cc23)C[C@@H]1C [Compound 436],–,–,–,–,–,–,< 100 nM,< 100 nM,1000 to 10000 nM,100 to 1000 nM,1000 to 10000 nM,1000 to 10000 nM,–

# Further lines, with some results ahead:
IC50 (SW620 cells (KRAS G12V); [5]),"IC50 [1, 6]","IC50 [2, 7]","IC50 [3, 8]","IC50 [4, 9]","IC50 (GP2d cells (KRAS G12D); GP2d, class symbols)",IC50 (SW620 cells (KRAS G12V); [14]),IC50 (GP2d cells (KRAS G12D); GP2d),IC50 ([1]; KRAS WT-GppNHp/RAF1 RBD HTRF),IC50 ([2]; KRAS G12R-GppNHp/RAF1 RBD HTRF),IC50 ([3]; KRAS G12V-GppNHp/RAF1 RBD HTRF),IC50 ([4]; KRAS G12D-GppNHp/RAF1 RBD HTRF),SMILES,other results
< 100 nM,< 100 nM,< 100 nM,< 100 nM,< 100 nM,< 100 nM,–,–,–,–,–,–,"CCN(c1nc(OC[C@@]23CCCN2C[C@H](F)C3)nc2c(F)c(-c3ccc(F)c4sc(N)c(C#N)c34)c(C(F)(F)F)cc12)[C@H]1CCN(C(=O)[C@@H]2CC2(F)F)[C@@H]1C (atropisomer, axis not shown) [Compound 693]",–
–,–,–,–,–,–,< 100 nM,< 100 nM,100 to 1000 nM,100 to 1000 nM,100 to 1000 nM,< 100 nM,CCN(c1nc(OC[C@@]23CCCN2C[C@H](F)C3)nc2c(F)c(-c3ccc(F)c4sc(N)c(C#N)c34)c(C(F)(F)F)cc12)[C@H]1C[C@@H](C)N(C(C)=O)C1 [Compound 446],–
–,–,–,–,–,–,< 100 nM,< 100 nM,< 100 nM,< 100 nM,< 100 nM,< 100 nM,"CCN(c1nc(OC[C@@]23CCCN2C[C@H](F)C3)nc2c(F)c(-c3ccc(F)c4sc(N)c(C#N)c34)c(C(F)(F)F)cc12)[C@H]1CCN(C(=O)N2CCOCC2)C1 (atropisomer, axis not shown) [Compound 553]",–
< 100 nM,< 100 nM,< 100 nM,< 100 nM,< 100 nM,< 100 nM,–,–,–,–,–,–,"CCN(c1nc(OC[C@@]23CCCN2C[C@H](F)C3)nc2c(F)c(-c3ccc(F)c4sc(N)c(C#N)c34)c(C(F)(F)F)cc12)[C@H]1CCN(C(=O)[C@H]2CCO2)[C@@H]1C (atropisomer, axis not shown) [Compound 805]",–
